Results as given in patent US20140163082A1, “PYRAZOLYL COMPOUNDS FOR USE IN REVERSING REACTIVE GLIOSIS” (priority 2011, published 2014).

How the values were obtained:
endothelial tip cells = test: Filopodia number and length on endothelial tip cells, OIR mouse model; type: in vivo, C57BL/6J mice; conditions: OIR mice injected with YC-1 [25-100 μl], vs DMSO-treated retinas
Experimental: FIG. 4 the Influence of YC-1 on filopodia number and length. […] Image of tip cells along the leading edge of vascularization from; [A] Non-treated ischemic retinas; [B] DMSO-treated retinas; [C, D, E, and F] represent retinas from animals that were injected with YC-1 [25-100 μl]. Filopodia lengths and number/tip cell were not influenced by DMSO treatment. […] [n=5 per group].
A. Filopodia from DMSO-treated retinas had approximately similar lengths as the nontreated ischemic retinas. […] [ANOVA, ***P<0.001; **P<0.01 between YC-1 and DMSO]. There were 24 tip cells/retina that were averaged. [n=5 per group].
B. DMSO has no influence on the number of filopodia/tip cell. […] [ANOVA, ***P<0.001; **P<0.01 between YC-1 and DMSO]. There were 24 tip cells/retina that were averaged. [n=5 per group].
Retinal NV was induced in newborn mice as described previously. Briefly, P7 mice were exposed with their nursing mother, for 5 days [between P7 and P12] to hyperoxic conditions, by incubating them in an airtight chamber [PROOX 110 chamber O2 controller; Biospherix Ltd., Redfield, N.Y.] ventilated by a mixture of O2 and air to a final oxygen fraction of 75±2%. These incubation conditions induced vaso-obliteration and subsequent cessation of vascular development in the capillary beds of the central retina. […]

R28 cells = test: Western blot, R28; type: cell-based, rat; conditions: R28, hypoxia 48 hours, YC-1 25-100 μM
Experimental: (§1) Cells were placed in airtight chambers [BioSpherix, Redfield, N.Y.] and the O2 tension was maintained at 1.2% by using Pro-Ox Model 110 O2 regulator [BioSpherix, Redfield, N.Y.]. The chamber was purged with a gas mixture of 5.32% CO2, and 93.48% N2. […] Müller cells [rMC-1] and […] cells were seeded overnight in 6-well plates [10^5 cells/well]. Cells were treated with either YC-1 [25-100 μM] or DMSO [0.2% v/v] for 48 hours under normoxic or hypoxic environments. Reactions were terminated by addition of lysis buffer [Cell Signaling, Beverly, Mass.]. Protein content of the cell lysates was determined according to the Bradford method [Bio-Rad, Hercules, Calif.]. Aliquots [40 μg] of whole-cell lysates were separated on 7.5% SDS-PAGE, and electro-transferred onto polyvinylidene membranes [Amersham Pharmacia Biotech, Little Chalfont]. After blocking with 5% nonfat dry milk in TBS-T, the blots were incubated overnight with anti-iNOS [at 1:100] and anti-β-actin [internal control] antibodies. Then blots were washed 3×10 min washes in PBS/tween and subsequently incubated with peroxidase-conjugated anti-mouse IgG secondary antibody at 1:3000. The signals were obtained by enhanced chemiluminescence [Amersham Biosciences], and visualized by exposure to X-ray film. Upon completion of chemiluminescence, equal lane loading was checked by Ponceau S Solution [Sigma, St. Louis, Mo.]. X-ray films were scanned with a computer-assisted densitometer [model G-710; Bio-Rad] to quantify band optical density [Quantity One software; Bio-Rad].

rMC-1 cells [1] = system: rMC-1 cells
[2] = system: ischemic retinas of the OIR mouse model; conditions: refs [16, 18]; cited from earlier work
rMC-1 cells [3] = test: Western blot, rMC-1; type: cell-based; conditions: rMC-1, hypoxia 48 hours, YC-1 25-100 μM
Experimental: as §1

ischemic retinas = test: Real time RT-PCR analysis, in vivo (OIR retinas); set-up: species or system C57BL/6J mice; conditions: OIR mice
Description: mRNA levels for HIF-1, VEGF, PDGF-B, GFAP and iNOS were quantified by Real time RTPCR. We used the primers summarized in [FIG. 6C] for RT-PCR. Gene-specific molecular beacons and primers were designed to encompass the genes of interest, with beacon's annealing site to overlap with the exon-exon junctions for additional specificity [Beacon Designer 6.0, Premier Biosoft International, Palo Alto, Calif., USA]. Threshold cycle [Ct] values for the different samples were utilized for the calculation of gene expression fold change using the formula 2 to the minus power of delta delta ct. Fold changes in the HIF-1, VEGF, PDGF-B, GFAP and iNOS gene relative to the β-actin endogenous control gene were determined by the following equation: fold change=2−Δ[ΔC T], where change in threshold cycle [ΔCT]=CT [gene of interest]−CT [β-actin] and Δ [ΔCT]=ΔCT [treated]−ΔCT [untreated].
Retinal NV was induced in newborn mice as described previously. Briefly, P7 mice were exposed with their nursing mother, for 5 days [between P7 and P12] to hyperoxic conditions, by incubating them in an airtight chamber [PROOX 110 chamber O2 controller; Biospherix Ltd., Redfield, N.Y.] ventilated by a mixture of O2 and air to a final oxygen fraction of 75±2%. These incubation conditions induced vaso-obliteration and subsequent cessation of vascular development in the capillary beds of the central retina. At P12, the mice were allowed to recover in normal room air conditions and maintained for another 5 days [till P17], the day in which peak disease occurs. A condition of relative hypoxia resulted between P12 and P17, and extensive retinal NV developed in 100% of the mice. Age-matched animals with the hyperoxia-exposed groups were maintained identically, except they were exposed to room air […], 79% N2] for the entire duration of the experiment. All animals were examined and sacrificed on the same days.
A group of hyperoxia-exposed animals [n=15] were injected intravitreally [into both eyes] at P12 and P15 with 3 μl of YC-1 [100 μM] [drug-treated group]. Another group of hyperoxiaexposed mice [n=15] were injected intravitreally [into both eyes] at P12 and P15 with 3 μl of DMSO [0.2% [v/v]] [mock-treated group]. Non-treated mice grown under ambient conditions, non-treated hyperoxia-exposed mice, DMSO-treated hyperoxia-exposed mice and YC-1-treated hyperoxia-exposed mice, were all examined at different critical time points for qualitative assessment of the retinal vasculature by fluorescein angiography.

[4] = 100 μM YC-1, vs DMSO-treated retinas

OCc1ccc(-c2nn(Cc3ccccc3)c3ccccc23)o1 [YC-1, 3-(5′-hydroxymethyl-2′-furyl)-1-benzylindazole]
number of filopodia on endothelial tip cells (endothelial tip cells): significantly and dose-dependently reduced | total length of filopodia on endothelial tip cells (endothelial tip cells): significantly and dose-dependently reduced | HIF-1 protein level (Western blot) (R28 cells; vs DMSO-treated hypoxic cells): inhibited the hypoxia-induced upregulation | PDGF-B protein level (Western blot) (R28 cells; vs DMSO-treated hypoxic cells): inhibited the hypoxia-induced upregulation | VEGF protein level (Western blot) (R28 cells; vs DMSO-treated hypoxic cells): inhibited the hypoxia-induced upregulation | iNOS protein level (Western blot) (R28 cells; vs DMSO-treated hypoxic cells): inhibited the hypoxia-induced upregulation | GFAP protein level (Western blot) (R28 cells; vs non-treated hypoxic cells): inhibited the hypoxia-induced GFAP protein levels in a dose-dependent manner | cell viability (DAPI exclusion) (rMC-1 cells [1]): comprised the majority of cells | HIF-1 and other proangiogenic factors [VEGF, MMP-9, ET-1, and EPO] [2]: inhibits | HIF-1 protein level (Western blot) (rMC-1 cells [3]; vs DMSO-treated hypoxic cells): inhibited the hypoxia-induced upregulation | PDGF-B protein level (Western blot) (rMC-1 cells [3]; vs DMSO-treated hypoxic cells): inhibited the hypoxia-induced upregulation | VEGF protein level (Western blot) (rMC-1 cells [3]; vs DMSO-treated hypoxic cells): inhibited the hypoxia-induced upregulation | iNOS protein level (Western blot) (rMC-1 cells [3]; vs DMSO-treated hypoxic cells): inhibited the hypoxia-induced upregulation | GFAP protein level (Western blot) (rMC-1 cells [3]; vs non-treated hypoxic cells): inhibited the hypoxia-induced GFAP protein levels in a dose-dependent manner | PDGF-B message (mRNA) level in retina (ischemic retinas; [4]): significantly attenuated | VEGF message (mRNA) level in retina (ischemic retinas; [4]): significantly attenuated | iNOS message (mRNA) level in retina (ischemic retinas; [4]): significantly attenuated | HIF-1α message (mRNA) level in retinal tissue (ischemic retinas; YC-1): did not have any influence | GFAP message (mRNA) level in retina (ischemic retinas; YC-1 dual injection, vs DMSO, normalized to β-actin): significantly attenuated
